Legend:
[1] = xn = mol fraction of the nth substance listed; conditions: 101 kPa, Liquid; for viscosity: Capillary tube (Ostwald / Ubbelohde) method; for mass density: Vibrating tube method
[2] = excess molar enthalpy (molar enthalpy of mixing); xn = mol fraction of the nth substance listed; conditions: 303.15 K, 101 kPa, Liquid, Calvet calorimetry

CCOC(=O)OCC [diethyl carbonate] + CCCCCCCCO
[1]
Conditions | mass density [kg/m3] | viscosity [mPa·s]
288.15 K, x1 = 0.05879 | 834.94 | 8.723
288.15 K, x1 = 0.09178 | 838.6 | 7.678
288.15 K, x1 = 0.184 | 849.27 | 5.521
288.15 K, x1 = 0.2839 | 861.63 | 3.992
288.15 K, x1 = 0.4001 | 877.04 | 2.876
288.15 K, x1 = 0.5109 | 892.89 | 2.157
288.15 K, x1 = 0.598 | 906.21 | 1.773
288.15 K, x1 = 0.6927 | 921.66 | 1.441
288.15 K, x1 = 0.8073 | 941.89 | 1.157
288.15 K, x1 = 0.9275 | 965.14 | 0.953
288.15 K, x1 = 0.9531 | 970.42 | 0.921
293.15 K, x1 = 0.05259 | 830.75 | 7.441
293.15 K, x1 = 0.1047 | 836.45 | 6.062
293.15 K, x1 = 0.1967 | 847.03 | 4.538
293.15 K, x1 = 0.2955 | 859.15 | 3.308
293.15 K, x1 = 0.3964 | 872.38 | 2.544
293.15 K, x1 = 0.5031 | 887.37 | 1.951
293.15 K, x1 = 0.604 | 902.57 | 1.573
293.15 K, x1 = 0.6995 | 918.01 | 1.285
293.15 K, x1 = 0.8175 | 938.67 | 1.039
293.15 K, x1 = 0.9124 | 956.76 | 0.9
293.15 K, x1 = 0.9531 | 964.98 | 0.853
303.15 K, x1 = 0.05353 | 823.7 | 5.282
303.15 K, x1 = 0.1003 | 828.65 | 4.522
303.15 K, x1 = 0.1902 | 838.63 | 3.432
303.15 K, x1 = 0.3002 | 851.69 | 2.536
303.15 K, x1 = 0.4112 | 865.89 | 1.928
303.15 K, x1 = 0.5038 | 878.58 | 1.584
303.15 K, x1 = 0.5934 | 891.62 | 1.32
303.15 K, x1 = 0.6981 | 907.98 | 1.075
303.15 K, x1 = 0.8151 | 927.85 | 0.884
303.15 K, x1 = 0.9138 | 946.1 | 0.773
303.15 K, x1 = 0.9548 | 954.16 | 0.74
313.15 K, x1 = 0.05666 | 816.83 | 3.842
313.15 K, x1 = 0.1109 | 822.42 | 3.267
313.15 K, x1 = 0.1956 | 831.59 | 2.59
313.15 K, x1 = 0.2893 | 842.35 | 2.054
313.15 K, x1 = 0.4005 | 856.05 | 1.585
313.15 K, x1 = 0.5067 | 870.12 | 1.273
313.15 K, x1 = 0.6044 | 884.01 | 1.059
313.15 K, x1 = 0.7038 | 899.18 | 0.893
313.15 K, x1 = 0.8041 | 915.66 | 0.766
313.15 K, x1 = 0.9092 | 934.43 | 0.672
313.15 K, x1 = 0.954 | 942.96 | 0.643

[2]
Conditions | excess molar enthalpy [kcal/mol]
x1 = 0.09134 | 0.176
x1 = 0.1276 | 0.236
x1 = 0.1764 | 0.31
x1 = 0.2484 | 0.394
x1 = 0.3155 | 0.46
x1 = 0.374 | 0.5
x1 = 0.4304 | 0.528
x1 = 0.491 | 0.544
x1 = 0.5699 | 0.542
x1 = 0.6268 | 0.529
x1 = 0.6895 | 0.499
x1 = 0.7492 | 0.455
x1 = 0.8111 | 0.387
x1 = 0.8705 | 0.298
x1 = 0.9357 | 0.167

CCOC(=O)OCC [diethyl carbonate] + CCCCCO
[1]
Conditions | mass density [kg/m3] | viscosity [mPa·s]
288.15 K, x1 = 0.05026 | 826.9 | 3.879
288.15 K, x1 = 0.106 | 836.4 | 3.215
288.15 K, x1 = 0.1881 | 850.28 | 2.529
288.15 K, x1 = 0.2879 | 866.92 | 1.972
288.15 K, x1 = 0.396 | 884.69 | 1.595
288.15 K, x1 = 0.4905 | 900.03 | 1.355
288.15 K, x1 = 0.5917 | 916.28 | 1.182
288.15 K, x1 = 0.7104 | 935.09 | 1.03
288.15 K, x1 = 0.8067 | 950.23 | 0.948
288.15 K, x1 = 0.896 | 964.17 | 0.898
288.15 K, x1 = 0.9607 | 974.25 | 0.871
293.15 K, x1 = 0.04854 | 822.8 | 3.391
293.15 K, x1 = 0.0572 | 824.25 | 3.292
293.15 K, x1 = 0.1071 | 832.6 | 2.796
293.15 K, x1 = 0.1988 | 847.85 | 2.138
293.15 K, x1 = 0.29 | 862.87 | 1.725
293.15 K, x1 = 0.398 | 880.41 | 1.402
293.15 K, x1 = 0.4939 | 895.79 | 1.202
293.15 K, x1 = 0.5998 | 912.55 | 1.049
293.15 K, x1 = 0.6968 | 927.7 | 0.947
293.15 K, x1 = 0.8009 | 943.91 | 0.869
293.15 K, x1 = 0.8902 | 957.76 | 0.826
293.15 K, x1 = 0.9604 | 968.66 | 0.808
303.15 K, x1 = 0.06248 | 817.46 | 2.453
303.15 K, x1 = 0.09976 | 823.53 | 2.195
303.15 K, x1 = 0.2017 | 839.99 | 1.686
303.15 K, x1 = 0.2898 | 854.09 | 1.395
303.15 K, x1 = 0.3969 | 871 | 1.159
303.15 K, x1 = 0.4922 | 885.91 | 1.013
303.15 K, x1 = 0.5941 | 901.64 | 0.893
303.15 K, x1 = 0.6987 | 917.65 | 0.808
303.15 K, x1 = 0.8039 | 933.63 | 0.75
303.15 K, x1 = 0.8997 | 948.13 | 0.715
303.15 K, x1 = 0.9608 | 957.42 | 0.703
313.15 K, x1 = 0.05411 | 808.37 | 1.951
313.15 K, x1 = 0.1042 | 816.28 | 1.705
313.15 K, x1 = 0.1939 | 830.39 | 1.373
313.15 K, x1 = 0.29 | 845.34 | 1.139
313.15 K, x1 = 0.406 | 863.19 | 0.95
313.15 K, x1 = 0.4965 | 876.96 | 0.847
313.15 K, x1 = 0.5957 | 891.9 | 0.763
313.15 K, x1 = 0.7474 | 914.56 | 0.675
313.15 K, x1 = 0.803 | 922.81 | 0.653
313.15 K, x1 = 0.8997 | 937.15 | 0.628
313.15 K, x1 = 0.9582 | 945.86 | 0.62

[2]
Conditions | excess molar enthalpy [kcal/mol]
x1 = 0.04842 | 0.0916
x1 = 0.085 | 0.156
x1 = 0.1521 | 0.251
x1 = 0.2122 | 0.326
x1 = 0.263 | 0.373
x1 = 0.3154 | 0.418
x1 = 0.3592 | 0.441
x1 = 0.4399 | 0.477
x1 = 0.4581 | 0.478
x1 = 0.5444 | 0.491
x1 = 0.64 | 0.47
x1 = 0.6925 | 0.435
x1 = 0.7415 | 0.407
x1 = 0.7993 | 0.357
x1 = 0.8519 | 0.291
x1 = 0.9139 | 0.191

From the NIST ThermoML archive (doi:10.1021/je1013476)
